Measurements taken from PubChem BioAssay (NCI).
Where “and” joins values, the source holds several entries; their conditions need not be identical. Identical values can stand only once.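 Cultured in 96-well plates, cells were exposed to test compound for 48 hours across five concentrations. GI50 marks 50% less growth. TGI is the concentration that stops growth completely.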

Experiments:
Assay in all cases: NCI tumour cell line growth inhibition, 48 h
DLD-1 colon = system: DLD-1 colon
DMS 114 small cell lung = system: DMS 114 small cell lung
HOP-18 NSCLC = system: HOP-18 NSCLC
KM20L2 colon = system: KM20L2 colon
LXFL 529 NSCLC = system: LXFL 529 NSCLC
RXF-631 renal = system: RXF-631 renal
SNB-78 CNS = system: SNB-78 CNS
XF 498 CNS = system: XF 498 CNS
MDA-N = system: MDA-N
P388 leukemia = system: P388 leukemia
P388/ADR leukemia = system: P388/ADR leukemia
SN12K1 renal = system: SN12K1 renal

Structure (SMILES)	TGI (DLD-1 colon)	TGI (DMS 114 small cell lung)	TGI (HOP-18 NSCLC)	TGI (KM20L2 colon)	TGI (LXFL 529 NSCLC) [µM]	TGI (RXF-631 renal) [µM]	TGI (SNB-78 CNS) [µM]	TGI (XF 498 CNS)	TGI (MDA-N)	other results
Cc1c2c(c(C)c3c1[nH]c1ccccc13)CN(C)CC2	> 100 µM	28.5 µM	> 100 µM	41.6 µM	28.2	89.7	55.9			
O=C1OC(=O)C2C3C=CC(C12)C1C2C=CC2C31 (centres undefined)			> 100 µM	> 100 µM	> 100	> 100		> 100 µM		
CCn1c2ccccc2c2c(-c3ccccc3)cc3c(c21)C(=O)N(c1ccccc1)C3=O	> 100 µM	> 100 µM		> 100 µM	> 100		> 100	> 100 µM		
CC1(C)O[C@@H]2C[C@H]3[C@@H]4C[C@H](F)C5=CC(=O)C=C[C@]5(C)[C@@]4(F)[C@@H](O)C[C@]3(C)[C@]2(C(=O)CO)O1									> 100 µM	
NC(=O)NC1C(C(=O)O)N(Cc2ccccc2)C(=O)N1Cc1ccccc1 (centres undefined)	> 100 µM	> 100 µM		> 100 µM	> 100		> 100	> 100 µM		
CC(=O)c1ccc(NC(=O)COC(=O)c2cccc3c(=O)c4ccccc4[nH]c23)cc1	> 100 µM	> 100 µM	> 100 µM	> 100 µM	> 100	> 100	> 100	55.5 µM		
Cc1ccc(C2NC(=O)c3ccccc3N2)c(C)c1 (centres undefined)									0.701 µM	
Cc1nc2cc(Nc3ccccc3C(=O)O)ccc2s1	> 100 µM	> 100 µM	> 100 µM	> 100 µM	> 100					
Cn1cc(C(=O)c2ccccc2)cc(C(=O)c2ccccc2)c1=O	> 100 µM	> 100 µM		> 100 µM	> 100	> 100	> 100	> 100 µM		
O=C1CN(c2cccc(Cl)c2)C(=O)CN1NCNN1CC(=O)N(c2cccc(Cl)c2)CC1=O									> 100 µM	
Cc1cc(S(=O)(=O)Nc2n[nH]c(N)n2)c(Cl)cc1Cl									> 10 µM	
COc1ccc2c(c1)-c1nn(CCCN(C)C)c3ccc([N+](=O)[O-])c(c13)N2	5.24 µM and 6.12 µM	4.24 µM and 13.8 µM	13.6 µM and 21 µM	4.98 µM and 10.9 µM				2.34 µM and 16.2 µM	2.53 µM and 3.61 µM	GI50 (DMS 114 small cell lung): 0.202 µM and 0.543 µM; GI50 (KM20L2 colon): 0.0855 µM and 0.49 µM; GI50 (MDA-N): 0.159 µM and 0.503 µM; TGI (P388 leukemia): 0.666 µM; TGI (P388/ADR leukemia): 0.925 µM; TGI (SN12K1 renal): 0.682 µM; GI50 (XF 498 CNS): 0.443 µM and 2.91 µM
CCC(C)C(=O)OCC(=O)c1ccc(-c2ccccc2)cc1 (centres undefined)									> 100 µM	
NC(Cc1ccc2nc3c4ccccc4c(=O)cc-3oc2c1)C(=O)O (centres undefined)									29.4 µM	
CC(=O)NC1=NC(=O)/C(=C/c2ccc(/C=C3/C(=O)N=C(NC(C)=O)N3C)cc2)N1C									> 100 µM	
CC1OC(CC(=O)O)CC2=C1C(=O)c1c(O)cccc1C2=O (centres undefined)	0.0781 µM	0.288 µM	3.88 µM	1.2 µM	0.218	3.01	0.383	0.324 µM	0.518 µM	
NC(=S)N1N=C2c3ccccc3CC[C@H]2[C@@H]1c1ccc(Cl)cc1	> 100 µM	70.6 µM	> 100 µM	> 100 µM	> 100		> 100	60.6 µM		
COc1ccc(NC(=O)CC(=O)n2nc(C)c(N=Nc3ccccc3C(=O)O)c2C)cc1	> 100 µM	> 100 µM		> 100 µM	> 100		> 100	> 100 µM		
O=C(CCCN1CCC(C(O)c2ccc(F)cc2)CC1)c1ccc(F)cc1 (centres undefined)	120 µM	108 µM	142 µM	96 µM			123	15.1 µM	116 µM	TGI (P388 leukemia): 119 µM; TGI (P388/ADR leukemia): 141 µM; TGI (SN12K1 renal): 108 µM
O=c1c2cc3c(cc2c2cccc4c2n1CCC4)OCO3	> 100 µM		> 100 µM	> 100 µM	> 100		> 100			
CC(=O)OC1=CC2(OC(C)=O)CC(C)(C)C1C1C(=O)C=CC(=O)C12 (centres undefined)	> 100 µM	> 100 µM		> 100 µM	> 100	> 100	> 100	> 100 µM	> 100 µM	
CCOC(=O)Nc1cc2ccccc2c(N=Nc2ccccc2)c1O									> 100 µM	

Structure (SMILES)	TGI (DLD-1 colon)	TGI (DMS 114 small cell lung)	TGI (HOP-18 NSCLC)	TGI (KM20L2 colon)	TGI (LXFL 529 NSCLC) [µM]	TGI (RXF-631 renal) [µM]	TGI (SNB-78 CNS) [µM]	TGI (XF 498 CNS)	TGI (MDA-N)	other results
CC(C)(C)N/N=C(\C(=O)NC1=C(Cl)C(=O)c2ccccc2C1=O)C1C=CCS1(=O)=O (centres undefined)									6.33 µM	
CC(=O)Nc1n[n+]([O-])c2cc(C)ccc2[n+]1[O-]									14.9 µM	
Cc1ccc(NC(=O)CCc2n[nH]c(=S)o2)cc1	> 100 µM	> 100 µM	> 100 µM	> 100 µM	> 100	> 100	> 100	> 100 µM		
N#CC1=C(O)NC(O)=C(C#N)C1c1ccc(C2C(C#N)=C(O)NC(O)=C2C#N)cc1	> 100 µM	> 100 µM	> 100 µM	> 100 µM	> 100	> 100	> 100	> 100 µM		
Cc1cc(Cl)ccc1C(=O)c1ccc2ccccc2c1C(=O)O									> 100 µM	
CCN1C(=NCCO)NS(=O)(=O)c2ccccc21									> 100 µM	
CN(C)c1cccc(F)c1C(=O)NC(=O)Nc1ccc(Cl)cc1									0.762 µM	
CC1=Nc2c([nH]c(=S)[nH]c2=O)NC(c2c(Cl)cccc2Cl)C1 (centres undefined)	5.85 µM	13.8 µM	30.2 µM	13.6 µM	10.2	22.5	25	10.9 µM	1.99 µM	
c1ccc(OCc2nnc3n2N=C(c2ccccc2)CS3)cc1	> 100 µM	> 100 µM			> 100		> 100	> 100 µM		
O=c1[nH]cnc2c(COCCO)c[nH]c12	> 100 µM	> 100 µM	> 100 µM	> 100 µM	> 100	> 100	> 100	> 100 µM		
OCCN(CCO)c1cccc(N(CCO)CCO)n1	> 100 µM	> 100 µM		> 100 µM	> 100	> 100	> 100	> 100 µM		
COc1cc(C(C)O)c[n+](CCC2CNc3ccccc32)c1 (centres undefined)	> 100 µM	> 100 µM		> 100 µM	> 100			> 100 µM		
CCn1c(CCl)nc2c1C(=O)c1ccccc1C2=O									3.85 µM	
COc1cccc(N2C(=O)C3C4C=C5c6ccccc6N(c6ccccc6)C5(C3C2=O)[C@H]2C(=O)N(c3cccc(OC)c3)C(=O)[C@@H]42)c1 (some centres undefined)	> 100 µM	> 100 µM	> 100 µM	> 100 µM	> 100	> 100	> 100	> 100 µM		
COc1ccc(NCC(=O)Nn2c(-c3ccccc3)nc3ccccc3c2=O)cc1									> 100 µM	
COC(=O)Cc1cc(=O)[nH]c2c1C(=O)CCC2	> 100 µM		> 100 µM		> 100			> 100 µM		
Cc1ccc(S(=O)(=O)N/N=C/C(C)C)cc1	> 100 µM	> 100 µM	> 100 µM	> 100 µM	> 100	> 100	> 100			
N#Cc1cccc(C=NC23CC4CC(CC(C4)C2)C3)c1		> 100 µM		> 100 µM			> 100			
O=[N+]([O-])c1cc2no[n+]([O-])c2cc1N1CCCCC1									7.06 µM	
COc1ccc(C(=O)C#Cc2c[nH]c(=O)[nH]c2=O)cc1	24.6 µM	46.7 µM	> 50.1 µM	22.8 µM	12.2	34.1	37.9			
C=C(C(=C)P(=S)(C(C)C)C(C)C)P(=S)(C(C)C)C(C)C	> 100 µM	> 100 µM		> 100 µM	> 100	> 100	> 100	> 100 µM		
